Read-outs that look alike come from different tables or passages of the source.
Experiments:
[1] = system: HIV; settings: cited from earlier work
[2] = Solubility of probucol; type: physicochemical; settings: formulation A; 10% probucol; ethanol not required to prevent precipitation
Procedure: The ethanol was added as a cosolvent to prevent precipitation of probucol from the peanut oil in formulations B & C.

[3] = cited from earlier work

Nc1ccn([C@H]2CC[C@@H](CO)O2)c(=O)n1 [ddC]
death rate ([1]; after 12 months, 20 patients, average CD4+ count on entry 154): 25%

CC(C)(Sc1cc(C(C)(C)C)c(O)c(C(C)(C)C)c1)Sc1cc(C(C)(C)C)c(O)c(C(C)(C)C)c1 [Probucol, bis(3,5-di-tert-butyl-4-hydroxyphenyl) acetone mercaptole]
solubility in medium chain triglycerides [2]: sufficiently soluble in medium chain triglycerides | water solubility [3]: water-insoluble | water solubility ([3]; listed as probucol): substantially water insoluble

Cc1cn([C@H]2C[C@H](N=[N+]=[N-])[C@@H](CO)O2)c(=O)[nH]c1=O [AZT]
death rate ([1]; after one year, 159 patients, estimated average CD4+ count 189): 15%

Reference: patent US5494936A, “Delivery formulation for probucol” (priority 1994, dated 1996)
